Measured values taken from patent publication US8771967B2, “Immunomodulation of functional T cell assays for diagnosis of infectious or autoimmune disorders” (priority 2010, dated 2014).

B1: IL-12: inflammatory cytokine purchased from R&D System (protein, UniProt P29459 23-219; P29460 23-328, looked up)
Interleukin-12 subunit alpha: RNLPVATPDPGMFPCLHHSQNLLRAVSNMLQKARQTLEFYPCTSEEIDHEDITKDKTSTVEACLPLELTKNESCLNSRETSFITNGSCLASRKTSFMMALCLSSIYEDLKMYQVEFKTMNAKLLMDPKRQIFLDQNMLAVIDELMQALNFNSETVPQKSSLEEPDFYKTKIKLCILLHAFRIRAVTIDRVMSYLNAS
Interleukin-12 subunit beta: IWELKKDVYVVELDWYPDAPGEMVVLTCDTPEEDGITWTLDQSSEVLGSGKTLTIQVKEFGDAGQYTCHKGGEVLSHSLLLLHKKEDGIWSTDILKDQKEPKNKTFLRCEAKNYSGRFTCWWLTTISTDLTFSVKSSRGSSDPQGVTCGAATLSAERVRGDNKEYEYSVECQEDSACPAAEESLPIEVMVDAVHKLKYENYTSSFFIRDIIKPDPPKNLQLKPLKNSRQVEVSWEYPDTWSTPHSYFSLTFCVQVQGKSKREKKDRVFTDKTSATVICRKNASISVRAQDRYYSSSWSEWASVPCS

Tests used:
[1] = test system: M. tuberculosis-specific T cells; assay: QuantiFERON-TB Gold In-Tube (QFT-GIT) whole blood IFN-γ release assay with immunomodulation by TLR agonists; conditions: for IFN-γ responses compared to the standard assay in anergic subjects / IFN-γ response at intermediate concentration / enhancement of IFN-γ response (median): poly(I:C) 40 μg/ml, imiquimod 2 μg/ml; for IFN-γ responses compared to the standard assay in anergic subjects: P <0.05; for IFN-γ response compared to the standard assay, two concentrations: 8 subjects with LTBI, poly(I:C) 10 and 100 μg/ml, LPS 125 and 500 pg/ml, imiquimod 1 and 5 μg/ml; for enhancement of IFN-γ response (median): vs standard QFT-GIT; for recapitulation of the effects of TLR agonists on the QFT-GIT assay: IL-6 at 200 and 2000 pg/ml, IL-12 at 12.5 and 25 pg/ml, INF-α at 15 and 30 pg/ml, alone or in combination; for kinetics of IFN-γ release: QFT-GIT with immunomodulation vs without, correlated with cytokine induction / APC maturation
From the text: Healthy adults were recruited from the Stanford Hospital clinical laboratories using a protocol approved by the Institutional Review Board. After obtaining in informed consent, volunteers were asked to complete a standardized questionnaire to assess risk factors for TB exposure. LTBI was defined as prior history of positive TST and QFT-GIT and ≧1 risk factor for LTBI. Uninfected control was defined as US born with prior negative TST and QFT-GIT and no risk factors.
The QFT-GIT assay was performed according to package insert with a slight modification described below. Up to 10 μA of each TLR agonist or an equivalent volume of endotoxin-free water was added to each QFT-GIT tube. Blood was collected in a 10 mL Kendall Monoject Green Stopper tube and 1 mL was quickly transferred to each QFT-GIT tube. Tubes were placed in a 3TC incubator for 22 hours or as indicated. ELISA was performed according to package insert. […] Calculation of IFN-γ concentrations was done with the software provided by the manufacturer.
Statistical analyses were performed using the Prism software (Graph Pad, San Diego, Calif.). The Wilcoxon's test of medians was used to compare differences in medians. All statistical tests were computed for a two-sided type I error rate of 5%.

[2] = test system: blood cells in the Nil tube; assay: Cytokine profiling of plasma from the QFT-GIT Nil tube after immunomodulation; type: cell-based, human; conditions: poly(I:C) 40 μg/ml, LPS 250 pg/ml, 22 h
Method: Was performed at the Human Immune Monitoring Center (HIMC) at Stanford University. 100 μl of plasma from the QFT-GIT Nil tube was subjected to cytokine profiling. Procarta Cytokine Assay custom 51-plex kit (Affymetrix, Palo Alto, Calif.) was used according to manufacturer's recommendations.

antigen presenting cells = assay: Flow cytometry of surface expression of MHC and costimulatory molecules in the QFT-GIT assay; type: cell-based, human; conditions: compared to unstimulated blood cells; LPS 250 pg/ml, poly(I:C) 40 μg/ml; 3 and 6 hours
Method: The QFT-GIT tubes were incubated upside down to prevent migration of cells into the gel layer. At the end of incubation 100 μl of 20 mM EDTA was added per tube. Samples were vortexed and incubated at room temperature for 15 minutes. Blood was transferred to a 15 ml polypropylene tube containing 9 ml of 1×FACS™ Lysing Solution (BD Biosciences, Immunocytometry Systems, San Jose, Calif.). Samples were incubated at room temperature for 10 minutes and directly transferred to a −70° C. freezer for storage. The cell surface immune profiling studies were performed at the HIMC. The cells were thawed in warm media, washed once with FACS buffer (PBS supplemented with 2% FBS and 0.1% sodium azide) and resuspended at 1×10^7 viable cells/ml. 5×10^5 cells per well were stained for 45 min at room temperature with the following antibodies: All reagents were purchased from BD Biosciences. Cells were washed three times with FACS buffer, and resuspended in […]. 10,000 cells per sample were collected using DIVA 6.0 software on an LSR11 flow cytometer (BD Biosciences). Data analysis was performed using FlowJo v9.3 by gating on live cells based on forward versus side scatter profiles, then on singlets using forward scatter area versus height, followed by cell subset-specific gating.

[3] = 8 individuals with histories of LTBI but currently negative QFT-GIT, LPS 250 pg/ml
[4] = subjects with LTBI, LPS 250 pg/ml
[5] = uninfected controls, LPS 250 pg/ml

Molecule | IFN-γ responses compared to the standard assay in anergic subjects [1, 3] | IFN-γ response compared to the standard assay, two concentrations [1] | IFN-γ response at intermediate concentration [1, 4] | enhancement of IFN-γ response (median) [1, 4] | IFN-γ response at intermediate concentration [1, 5] | recapitulation of the effects of TLR agonists on the QFT-GIT assay [1] | levels of IL-6, IL-12 p40, IFN-α, and other cytokines [2] | surface expression of MHC II and costimulatory molecules in monocytes and partially in B cells and myeloid dendritic cells (antigen presenting cells) | consistency in eliciting a response higher than the cutoff value for the standard assay ([1]; 8 individuals with histories of LTBI but currently negative QFT-GIT, cutoff 0.35 IU/ml) | kinetics of IFN-γ release [1] | magnitude of the IFN-γ responses (TB Ag minus Nil) [1, 5]
CC(C)Cn1cnc2c(N)nc3ccccc3c21 [imiquimod] | significantly increased | dose-dependent enhancement | significant enhancement | 3 fold | not in the uninfected controls | – | – | – | – | – | –
IL-6: inflammatory cytokine purchased from R&D System | – | – | – | – | – | failed to recapitulate | – | – | – | – | –
lipopolysaccharide [LPS] | significantly increased | dose-dependent enhancement | significant enhancement | 3.1 fold | significantly increased | – | significantly increased | increased | most consistent | earlier and more robust release of IFN-γ | ≤ 0.5 IU/ml
poly(I:C) | significantly increased | dose-dependent enhancement | significant enhancement | 5.7 fold | not in the uninfected controls | – | significantly increased | not | – | earlier and more robust release of IFN-γ | –
B1 | – | – | – | – | – | failed to recapitulate | – | – | – | – | –
